Consider 27 compounds from PubChem BioAssay AID1259408 (Genetic Toxicology Data Bank (GENE-TOX), 2018).

Each structure is given as a SMILES string. Calls of active or inactive are those of the source. No rule for the calls is given here.

For the series, the system named is GENE-TOX genotoxicity assays, various organisms and cells. As to the kind of experiment: GENE-TOX mutagenicity studies. Conditions: for call: Assay Type: In vivo carcinogenicity studies.
Where [1] appears, read: Species/Cell Type: Mammalian polychromatic erythrocytes, Assay Type: Micronucleus test, chromosome aberrations, Assay Code: MNTT, Evaluation Type: Evaluation B (Post-1980).
The mark [2] stands for this setting: Species/Cell Type: Syrian hamster embryo (SA7/SHE) cells, Assay Type: Cell transformation, viral enhanced, Assay Code: CT7-, Evaluation Type: Evaluation A (Pre-1980).
The mark [3] stands for this setting: Species/Cell Type: Bacillus subtilis (H17 vs M45), Assay Type: Rec-assay, spot test, DNA effects (bacterial DNA repair), Assay Code: REW-, Evaluation Type: Evaluation A (Pre-1980).
[4] abbreviates: Species/Cell Type: Salmonella typhimurium (one or more of the five standard strains: TA98, TA100, TA1535, TA1537, and TA1538), Assay Type: Histidine reverse gene mutation, Ames assay, Assay Code: SAL+, Evaluation Type: Evaluation A (Pre-1980).
The mark [5] stands for this setting: Species/Cell Type: Human lymphocytes, Assay Type: Sister-chromatid exchange (SCE) in vitro, Assay Code: SCL+, Evaluation Type: Evaluation B (Post-1980).
[6] abbreviates: Species/Cell Type: Human, Assay Type: Sister-chromatid exchange (SCE) in vitro, Assay Code: SC1+, Evaluation Type: Evaluation B (Post-1980).
Setting [7] is: Species/Cell Type: Chinese hamster lung (V79) cells, Assay Type: Forward gene mutation at the HPRT or ouabain locus, Assay Code: V79-, Evaluation Type: Evaluation A (Pre-1980).
The mark [8] stands for this setting: Species/Cell Type: Salmonella typhimurium (one or more of the five standard strains: TA98, TA100, TA1535, TA1537, and TA1538), Assay Type: Histidine reverse gene mutation, Ames assay, Assay Code: SALT, Evaluation Type: Evaluation A (Pre-1980).
[9] abbreviates: Species/Cell Type: Nonhuman, Assay Code: CCG+L, Evaluation Type: Evaluation A (Pre-1980).
[10] abbreviates: Species/Cell Type: Salmonella typhimurium (one or more of the five standard strains: TA98, TA100, TA1535, TA1537, and TA1538), Assay Type: Histidine reverse gene mutation, Ames assay, Assay Code: SAL+*, Activation: With metabolic activation, Evaluation Type: Evaluation A (Pre-1980).
[11] abbreviates: Species/Cell Type: Human, Assay Type: Sister-chromatid exchange (SCE) in vitro, Assay Code: SC1+D, Dose Response: With dose response, Evaluation Type: Evaluation B (Post-1980).
Where [12] appears, read: Species/Cell Type: Vicia faba, Assay Type: Chromosome aberrations, Assay Code: VIC+, Evaluation Type: Evaluation A (Pre-1980).
[13] abbreviates: Species/Cell Type: Human lymphocytes, Assay Type: Sister-chromatid exchange (SCE) in vitro, Assay Code: SCL+D, Dose Response: With dose response, Evaluation Type: Evaluation B (Post-1980).

In the case of `N=c1ccn(O)c2ccccc12`, the mutagenic call by setting is: (Species/Cell Type: Escherichia coli polA (W3119 vs P3478), Assay Type: Rec-assay, DNA effects (bacterial DNA repair), Assay Code: RE1-, Evaluation Type: Evaluation A (Pre-1980)) “inactive; negative”; (Species/Cell Type: Nonhuman, Assay Type: Chromosome aberrations in vitro, Assay Code: CY&+D, Dose Response: With dose response, Evaluation Type: Evaluation A (Pre-1980)) “active; positive”; (Species/Cell Type: Nonhuman, Assay Type: Sister-chromatid exchange (SCE) in vitro, Assay Code: SC2+D, Dose Response: With dose response, Evaluation Type: Evaluation A (Pre-1980)) “active; positive”. Besides, the call (Species/Cell Type: Nonhuman, Assay Code: CCGT, Evaluation Type: Evaluation A (Pre-1980)) is on record as “no conclusion”.

On to `CO`, for which the mutagenic call was “no conclusion” under setting [1]; “inactive; negative” (Species/Cell Type: Neurospora crassa, Assay Type: Aneuploidy, chromosome aberrations, Assay Code: NEN-, Evaluation Type: Evaluation A (Pre-1980)); “inactive; negative” (Species/Cell Type: Nonhuman, Assay Type: Sister-chromatid exchange (SCE) in vitro, Assay Code: SC2-, Evaluation Type: Evaluation A (Pre-1980)); “inactive; negative” under setting [2]; “inactive; negative” (Species/Cell Type: Syrian hamster embryo (SHE) cells, Assay Type: Cell transformation, clonal assay, Assay Code: CTC-, Evaluation Type: Evaluation A (Pre-1980)).

With `N=c1ccc2nc3ccc(N)cc3sc-2c1`, the mutagenic call runs as follows: under setting [3], “inactive; negative”; (Species/Cell Type: Drosophila melanogaster, Assay Type: Sex-linked recessive lethal gene mutation, Assay Code: SRLT, Evaluation Type: Evaluation A (Pre-1980)) “no conclusion”; (Species/Cell Type: Saccharomyces cerevisiae, Assay Type: Mitotic recombination or gene conversion, Assay Code: YECT, Evaluation Type: Evaluation A (Pre-1980)) “no conclusion”.

As to `CN[C@H]1CCc2cc(OC)c(OC)c(OC)c2-c2ccc(OC)c(=O)cc21`, the mutagenic call reads like this: (Species/Cell Type: Drosophila melanogaster, Assay Type: Aneuploidy, sex chromosome gain, chromosome aberrations, Assay Code: DAG+F, Evaluation Type: Evaluation A (Pre-1980)) “active; positive”; (Species/Cell Type: Drosophila melanogaster, Assay Type: Aneuploidy, whole sex chromosome loss, chromosome aberrations, Assay Code: DAC+F, Evaluation Type: Evaluation A (Pre-1980)) “active; positive”; (Species/Cell Type: Human lymphocytes, Assay Type: Sister-chromatid exchange (SCE) in vitro, Assay Code: SCLT, Evaluation Type: Evaluation B (Post-1980)) “no conclusion”; (Species/Cell Type: Human, Assay Type: Sister-chromatid exchange (SCE) in vitro, Assay Code: SC1T, Evaluation Type: Evaluation B (Post-1980)) “no conclusion”; (Species/Cell Type: Mammalian polychromatic erythrocytes, Assay Type: Micronucleus test, chromosome aberrations, Assay Code: MNT+, Evaluation Type: Evaluation A (Pre-1980)) “active; positive”; (Species/Cell Type: Nonhuman, Assay Type: Sister-chromatid exchange (SCE) in vitro, Assay Code: SC2T, Evaluation Type: Evaluation B (Post-1980)) “no conclusion”.

In the case of `NS(=O)(=O)c1ccccc1C(=O)O`, the mutagenic call under setting [1] was “no conclusion”.

For the compound `CCCCS(=O)(=O)OC`, the mutagenic call (Species/Cell Type: Glycine max (soybean), Assay Type: Gene mutation, Assay Code: GLM+, Evaluation Type: Evaluation A (Pre-1980)) was “active; positive”.

As for `CCN(CC)Cc1cc(CC(=O)NN)ccc1OC(C)C`, the mutagenic call (Species/Cell Type: Saccharomyces cerevisiae, Assay Type: Reverse gene mutation, Assay Code: YERT, Evaluation Type: Evaluation A (Pre-1980)) is on record as “no conclusion”.

With `O=NN1CCCNC1=O`, the mutagenic call under setting [4] is “active; positive”.

As for `CCCC=O`, the mutagenic call under setting [5] is “active; positive” and the mutagenic call under setting [6] is “active; positive”.

For `O=c1c(=O)c2c3ccccc3cc3ccc4cccc1c4c32`, the mutagenic call reads like this: under setting [7], “inactive; negative”; under setting [8], “no conclusion”.

For `ClCOCCl`, the call (Species/Cell Type: Nonhuman, Assay Code: CCG+, Evaluation Type: Evaluation A (Pre-1980)) is “active; positive”.

`Oc1cc2ccc3cc4ccccc4c4ccc(c1)c2c34`: the mutagenic call is “inactive; negative” under setting [7] and “active; positive” under setting [10]. Further, under setting [9], the call was “active; positive”.

As for `CN(C)CCC=C1c2ccccc2C2OC2c2ccccc21` (stereo not given), under setting [8], the mutagenic call is listed as “no conclusion”.

On to `CNC(=O)N(C)N=O`, for which the mutagenic call (Species/Cell Type: Arabidopsis species, Assay Type: Gene mutation, Assay Code: ARM+, Evaluation Type: Evaluation A (Pre-1980)) is “active; positive”; the mutagenic call under setting [4] is “active; positive”; the mutagenic call (Species/Cell Type: Zea mays (corn), Assay Type: Gene mutation, Assay Code: ZEM+D, Dose Response: With dose response, Evaluation Type: Evaluation A (Pre-1980)) was “active; positive”.

Take `S=C(NC1CCCCC1)NC1CCCCC1`: the mutagenic call (Species/Cell Type: Fischer rat embryo (RLV/1706) cells, Assay Type: Cell transformation, viral enhanced, Assay Code: CTR+, Evaluation Type: Evaluation A (Pre-1980)) was “active; positive”.

On to `CCc1ccccc1`, for which the mutagenic call reads like this: under setting [5], “active; positive”; under setting [6], “active; positive”; under setting [2], “inactive; negative”.

Consider `CCOP(=S)(OCC)Oc1ccc(Cl)cc1Cl`, for which the mutagenic call under setting [11] is “active; positive”.

On to `O=C1CCC(N2C(=O)c3ccccc3C2=O)C(=O)N1` (stereo not given), for which the mutagenic call (Species/Cell Type: Allium cepa, Assay Type: Chromosome aberrations, Assay Code: ALC+, Evaluation Type: Evaluation A (Pre-1980)) is “active; positive”; the mutagenic call (Species/Cell Type: Drosophila melanogaster, Assay Type: Aneuploidy, partial sex chromosome loss, chromosome aberrations, Assay Code: DAP-M, Evaluation Type: Evaluation A (Pre-1980)) is “inactive; negative”; the mutagenic call (Species/Cell Type: Drosophila melanogaster, Assay Type: Aneuploidy, sex chromosome gain, chromosome aberrations, Assay Code: DAG-M, Evaluation Type: Evaluation A (Pre-1980)) is “inactive; negative”; the mutagenic call (Species/Cell Type: Drosophila melanogaster, Assay Type: Aneuploidy, whole sex chromosome loss, chromosome aberrations, Assay Code: DAC-M, Evaluation Type: Evaluation A (Pre-1980)) is “inactive; negative”; the mutagenic call (Species/Cell Type: Mouse, Sex: Male, Assay Type: Sperm morphology, Assay Code: SPI-, Evaluation Type: Evaluation A (Pre-1980)) was “inactive; negative”; the mutagenic call (Species/Cell Type: Salmonella typhimurium, Assay Type: Forward and reverse gene mutation, host-mediated assay, Assay Code: HMA-, Evaluation Type: Evaluation A (Pre-1980)) is “inactive; negative”. Further, the mutagenic call under setting [12] is “active; positive”.

As for `c1ccc2c(c1)-c1ccccc1C1OC21` (stereo not given), the mutagenic call is, setting by setting: (Species/Cell Type: Mouse prostate cells, Assay Type: Cell transformation, Assay Code: CTM-, Evaluation Type: Evaluation A (Pre-1980)) “inactive; negative”; (Species/Cell Type: Syrian hamster embryo (SHE) cells, Assay Type: Cell transformation, clonal assay, Assay Code: CTC+, Evaluation Type: Evaluation A (Pre-1980)) “active; positive”.

In the case of `O=C(O)C(Cl)(Cl)Cl`, the mutagenic call was “active; positive” (Species/Cell Type: Mammalian polychromatic erythrocytes, Assay Type: Micronucleus test, chromosome aberrations, Assay Code: MNT+, Evaluation Type: Evaluation B (Post-1980)); “no conclusion” under setting [8]; “active; positive” under setting [12].

Turning to `Cc1c2ccccc2cc2c3c(ccc12)[C@@H](O)[C@H](O)C=C3`, where the note is “Species/Cell Type: Chinese hamster lung (V79) cells, Assay Type: Forward gene mutation at the HPRT or ouabain locus, Assay Code: V79+, Evaluation Type: Evaluation A (Pre-1980)”, the mutagenic call was “active; positive”. Further, the call under setting [9] is “active; positive”.

Turning to `CN(C)C(=O)N1CC1`, the mutagenic call (Species/Cell Type: Schizosaccharomyces pombe, Assay Type: Reverse gene mutation, Assay Code: YEZ+, Evaluation Type: Evaluation A (Pre-1980)) was “active; positive”.

Consider `O=[Te](=O)(O)O`, for which the mutagenic call (Species/Cell Type: Bacillus subtilis (H17 vs M45), Assay Type: Rec-assay, spot test, DNA effects (bacterial DNA repair), Assay Code: REW+, Evaluation Type: Evaluation A (Pre-1980)) was “active; positive” and the mutagenic call under setting [3] was “inactive; negative”.

Regarding `O=c1cc(-c2ccccc2)oc2c1ccc1ccccc12`, the mutagenic call was “active; positive” under setting [13]; “active; positive” under setting [11]; “no conclusion” (Species/Cell Type: Human, Assay Type: Sister-chromatid exchange (SCE) in vitro, Assay Code: SC1T, Evaluation Type: Evaluation A (Pre-1980)); “no conclusion” under setting [1]; “inactive; negative” under setting [2].

On to `O=C1CN(/N=C/c2ccc([N+](=O)[O-])o2)C(=O)N1CO`, for which, for the setting “Species/Cell Type: Human, Sex: Male, Assay Type: Sperm morphology, Assay Code: SPHT, Evaluation Type: Evaluation A (Pre-1980)”, the mutagenic call is given as “no conclusion”.

Consider `Cc1ccc2cccnc2c1`, for which, under setting [10], the mutagenic call is “active; positive”.

For `OCc1ccn2c1[C@H](O)CC2`, the mutagenic call reads like this: under setting [13], “active; positive”; under setting [11], “active; positive”.
